Measured values from ChEMBL document CHEMBL1123600, “N6-(2,2-diphenylethyl)adenosine, a novel adenosine receptor agonist with antipsychotic-like activity” (J Med Chem, 1987).

How the values were obtained:
[1] = biological target: Adenosine A2 receptor (Rattus norvegicus, UniProt P29276+P30543)
Description: Binding affinity to A2 adenosine receptor in rat striatal membranes by [3H]NECA (1-(6-amino-9H-purin-9-yl)-1-deoxy-N-ethyl-beta-D-ribofuranuronamide) displacement.

[2] = biological target: T1, Adenosine receptor A1 (Rattus norvegicus, UniProt P25099)
T1 sequence (P25099 whole entry): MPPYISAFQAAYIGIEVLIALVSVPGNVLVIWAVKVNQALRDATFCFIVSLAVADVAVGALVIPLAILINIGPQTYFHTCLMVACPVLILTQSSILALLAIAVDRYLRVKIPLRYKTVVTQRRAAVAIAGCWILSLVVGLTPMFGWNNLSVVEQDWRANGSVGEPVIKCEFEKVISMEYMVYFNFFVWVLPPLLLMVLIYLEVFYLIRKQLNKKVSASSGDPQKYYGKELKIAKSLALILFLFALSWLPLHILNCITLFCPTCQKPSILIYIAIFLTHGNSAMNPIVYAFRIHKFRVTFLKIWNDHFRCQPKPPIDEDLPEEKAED
Description: Binding affinity to adenosine A1 receptor in rat whole brain membranes by [3H]N6-cyclohexyladenosine displacement.

[3] = test system: Mus musculus; test: Effect on Motor activity in mouse following i.p. administration.; type: functional; conditions: ip
[4] = test system: Mus musculus; test: Effect on Ataxia in mouse following i.p. administration.; type: functional; conditions: ip
[5] = species on record: Rattus norvegicus; test: Effect on Sidman conditioned avoidance in rat.; type: functional
[6] = test system: Rattus norvegicus; test: Effect on Motor activity(MA) in rat was measured as ED50 by perorally administration of compound.; type: functional; conditions: po
[7] = test system: Rattus norvegicus; test: Effect on Ataxia(ATX) in rat was measured as ED50 by perorally administration of compound.; type: functional; conditions: po

Ki [1]	Ki [2]	SMILES	ED50 [3]	ED50 [4]	ED50 [5]	ED50 [6]	ED50 [7]
4700 nM	290 nM	OC[C@H]1OC(n2cnc3c(NCCCC(c4ccccc4)c4ccccc4)ncnc32)[C@H](O)[C@@H]1O (stereo partly specified)	32 mg/kg	> 100 mg/kg			
		C[C@@H](Cc1ccccc1)Nc1ncnc2c1ncn2[C@@H]1OC(CO)[C@@H](O)[C@H]1O (single isomer, unassigned)	16 mg/kg	75 mg/kg			
26000 nM	14300 nM	OC[C@H]1OC(n2cnc3c(NCC(c4ccccc4)(c4ccccc4)c4ccccc4)ncnc32)[C@H](O)[C@@H]1O (stereo partly specified)	80 mg/kg	> 100 mg/kg			
1230 nM	15.9 nM	OC[C@H]1O[C@@H](n2cnc3c(NCCCCc4ccccc4)ncnc32)[C@H](O)[C@@H]1O	32 mg/kg	> 100 mg/kg			
660 nM	4.6 nM	OC[C@H]1O[C@@H](n2cnc3c(Nc4ccccc4)ncnc32)[C@H](O)[C@@H]1O [N6-PHENYLADENOSINE]	25 mg/kg	30 mg/kg			
320 nM	16.2 nM	CC(C)(CNc1ncnc2c1ncn2C1O[C@H](CO)[C@@H](O)[C@H]1O)c1ccccc1 (stereo partly specified)	6.7 mg/kg	30 mg/kg			
		O=C(CCCN1CCC(O)(c2ccc(Cl)cc2)CC1)c1ccc(F)cc1 [HALOPERIDOL]	0.27 mg/kg	12 mg/kg	0.3 mg/kg	0.24 mg/kg	> 1 mg/kg
25 nM	6.8 nM	OC[C@H]1O[C@@H](n2cnc3c(NCC(c4ccccc4)c4ccccc4)ncnc32)[C@H](O)[C@@H]1O	1.3 mg/kg	145 mg/kg	2.5 mg/kg	2.2 mg/kg	31 mg/kg
	12.7 nM	OC[C@H]1O[C@@H](n2cnc3c(NCCc4ccccc4)ncnc32)[C@H](O)[C@@H]1O	15 mg/kg	> 100 mg/kg			
290 nM	79 nM	OC[C@H]1OC(n2cnc3c(NCCC(c4ccccc4)c4ccccc4)ncnc32)[C@H](O)[C@@H]1O (stereo partly specified)	33 mg/kg	> 100 mg/kg			
98 nM	2.4 nM	CC(CNc1ncnc2c1ncn2[C@@H]1O[C@H](CO)[C@@H](O)[C@H]1O)c1ccccc1 (mixture of isomers)	0.5 mg/kg	7 mg/kg			
30 nM	37 nM	CC(CNc1ncnc2c1ncn2C1O[C@H](CO)[C@@H](O)[C@H]1O)(c1ccccc1)c1ccccc1 (stereo partly specified)	7 mg/kg	> 100 mg/kg			
		C[C@H](Cc1ccccc1)Nc1ncnc2c1ncn2[C@@H]1O[C@H](CO)[C@@H](O)[C@H]1O [(R)-PIA]	0.8 mg/kg	2 mg/kg			
420 nM	23 nM	OC[C@H]1O[C@@H](n2cnc3c(NCCCc4ccccc4)ncnc32)[C@H](O)[C@@H]1O	19 mg/kg	> 100 mg/kg			
		CSc1ccc2c(c1)N(CCC1CCCCN1C)c1ccccc1S2 (stereo unspecified) [THIORIDAZINE]	3.3 mg/kg	13 mg/kg	19.7 mg/kg	13.3 mg/kg	> 30 mg/kg
3800 nM	480 nM	OC[C@H]1OC(n2cnc3c(NC(c4ccccc4)c4ccccc4)ncnc32)[C@H](O)[C@@H]1O (stereo partly specified)	80 mg/kg	> 100 mg/kg			
2200 nM	146 nM	OC[C@H]1OC(n2cnc3c(NCCCCC(c4ccccc4)c4ccccc4)ncnc32)[C@H](O)[C@@H]1O (stereo partly specified)	30 mg/kg	> 100 mg/kg			
280 nM		OC[C@H]1O[C@@H](n2cnc3c(NCc4ccccc4)ncnc32)[C@H](O)[C@@H]1O [N6-BENZYLADENOSINE]	22 mg/kg	> 100 mg/kg			
